# Laboratory results taken from patent US20190119649A1, “METHODS FOR GENERATING AUGMENTED STEM CELL-DERIVED BETA CELLS AND USES THEREOF” (President and Fellows of Harvard College, priority 2014, published 2019).
# Experiments:
# SC-β cells [1] = conditions: R428 together with antioxidant N-acetylcysteine; FIG. 1A
# Text: FIG. 2C is a schematic depicting an overview of an exemplary method for generating augmented SC-β cells in accordance with the present invention.
# In accordance with aspects of the present invention, the period of time comprises between 7 days and 21 days. […] In accordance with aspects of the present invention, the period of time comprises 3 days, 4 days, 5 days, 6 days, 7 days, 8 days, 9 days, 10 days, 11 days, 12 days, 13 days, 14 days, 15 days, 16 days, 17 days, 18 days, 19 days, 20 days, 21 days, 22 days, 23 days, 24 days, 25 days, 26 days, 27 days, 28 days, 29 days, or 30 days or longer.
# SC-β cells [2] = experiment: Glucose stimulated insulin secretion stimulation index of SC-β cells; type: cell-based, human; conditions: R428 together with antioxidant N-acetylcysteine; FIG. 1B and 1C
# Experimental: Stimulation index=[insulin@20 mM glucose]/[insulin@2 mM glucose]. Relative Stim Index=Stim Index/Stim Index of Control.
smiles,measurement,setting,value
Nc1nc(Nc2ccc3c(c2)CC[C@@H](N2CCCC2)CC3)nn1-c1cc2c(nn1)-c1ccccc1CCC2 [Compound R428],MAFA gene expression relative to SC-β cells generated without AXL inhibitor and antioxidant,SC-β cells [1],increased MAFA gene expression
same,Stimulation index ([insulin@20 mM glucose]/[insulin@2 mM glucose]) relative to SC-β cells generated without AXL inhibitor,SC-β cells [2],greater stimulation index
